Source: patent publication US20050049224A1, “Antimicrobial mixtures comprising iodopropynyl compounds and dimethyldithiocarbamate derivatives” (priority 2003, published 2005)

Columns and labels:
[1] = test system: Aspergillus niger (ATCC 6275); assay: Minimum Inhibitory Concentration (MIC) by spiral gradient endpoint plating, with Kull synergistic index; format: cell-based
Method: Spores were removed from the Aspergillus niger slant by adding a small amount of phosphate buffer pH 7.0 (Thomas Scientific phosphate buffer & magnesium chloride, Lot # 023-0703) and scraping with a sterile nichrome wire loop. This process was repeated twice. Loosened spores were removed from the slant by aseptically pouring them into a sterile bottle containing 30 ml. of phosphate buffer and a volume of roughly 40 ml. of 6-mm, borosilicate glass beads. The bead bottle was shaken to disperse the spores and additional buffer was added to a final volume of 50 ml. Spore density was adjusted in distilled water blanks to that of a 0.5. McFarland nephelometer standard.
With the aid of the SGE Software the proper aqueous dilutions of each biocide or test blend were prepared and adjusted to a final volume of 10 ml. Then, 250 micro-liters of each biocide mixture was processed by the spiral plater.
The Autoplate 4000 mechanically applied mixtures of test fungicides to 150 MM malt agar plates using an exponential application gradient. Gradients of applied fungicides were allowed to completely diffuse into the surface of the agar (1 to 4 hours at room temperature 23° C.) before inoculating the plates with fungi. […]
Following incubation, visible growth of the test organism was observed on a portion of the radial streak and ended where the concentration of biocide was high enough to prevent growth. This growth endpoint was used by the SGE software to compute the exact MIC expressed as parts per million (PPM) of active fungicide. […]
Elisman, H. D. Sylwestrowicz and P. K. Mayer, in Applied Microbiology, 9:538 (1961) where: • Qa=the quantity of A used in a binary mixture that gives the desired effect. • QA=the quantity of A which when used alone gives the desired effect. • Qb=the quantity of B used in a binary mixture that gives the desired effect. • QB=the quantity of B which when used alone gives the desired effect.
The synergistic index (SI) for each mixture was determined by the equation SI=Qa/QA+Qb/QB.

Aspergillus niger = assay: Fungal growth on acrylic/vinyl acrylic white house paint film on filter paper; format: cell-based; conditions: 0.06% actives in paint, four weeks 28° C., scale 1 (no growth touching square) to 15 (totally covered), average of at least 3 runs
Method: In this example an acrylic, vinyl acrylic white house paint was used as the test medium.
Test formulations of the actives were prepared for each of the biocide blends to be tested (see tables 2b and 2c) by weighing the appropriate amounts of actives and adding them to the test paint so that in each test formulation the weight of the actives was 20% of the sample and 80% of the sample was paint. Each mixture was then stirred to achieve a homogeneous mixture. These test formulations were then incorporated into the test paint at the rate of 0.3% w/w, i.e. the final level of actives in the paint was 0.06%.
The test paints were then applied to a filter paper using a standard 3-mil drawdown bar to insure uniformity of the film. Samples were then dried at room temperature, and placed on agar contained in a Petri dish. The filter papers were then inoculated with a test inoculum of Aspergillus niger. Inoculated filter papers containing the test paints were placed in a constant temperature (28° C.) fungal incubator for four weeks. At the end of the incubation, fungal growth on each test paint was measured and recorded.
Each test blend was run at least 3 times and each result represents the average of the runs.

[2] = test system: Streptoverticillium reticulans ATCC 25607 (pink stain organism); assay: ASTM E 1428-91 pink stain test of flexible PVC film; conditions: Table 3d, IPBC/Thiram in PVC film, 1000 ppm total; two weeks 28° C.; 0 no stain, 1 trace <10%, 2 slight 10-30%, 3 moderate 30-50%, 4 heavy >50% coverage; average of triplicate
Method: In this example a PVC formulation for flexible vinyl film was used as the test medium.
Five blends were prepared by adding the appropriate amount of the biocide to separate vinyl film form formulations prepared according to Table 3a.
Difco malt agar was prepared using manufacturers directions. Sterilized agar (30 ML) was poured into sterile plastic 100 mm Petri dishes to provide a solidified agar layer sufficient to nourish the test organism for the duration of the test.
Following inoculation of the agar, a sterile forceps was used to place the test specimen, previously sterilized by a brief dip in boiling water, on the agar. Each test blend was run in triplicate and the result represents the average of the three. The specimen was gently pressed on the surface of the agar to insure good contact. The Petri dishes were covered and incubated for two weeks in a 28° C. incubator.
Following incubation, samples were lifted from the surface of the agar and both sides were examined against a white background for presence of pink staining.
Degree of staining reported was determined by the area of the sample stained rather than by intensity of the color. […]

| Compound | QA (quantity of A which when used alone gives the desired effect) ([1]; MIC of IPBC alone (Table 1a)) [ppm] | QA (quantity of A which when used alone gives the desired effect) ([1]; MIC of IPBC alone (Table 1b)) [ppm] | Fungal Growth (Aspergillus niger; Table 2b, IPBC/Ziram) [fungus units] | Fungal Growth (Aspergillus niger; Table 2c, IPBC/Thiram) [fungus units] | QB (quantity of B which when used alone gives the desired effect) ([1]; MIC of Thiram alone (Table 1b)) [ppm] | Pink Stain Rating [2] |
| --- | --- | --- | --- | --- | --- | --- |
| CCCCNC(=O)OCC#CI [IPBC, 3-iodo-2-propynyl butyl carbamate] | 1.08 | 1.08 | 7.8 | 2.8 | – | – |
| CN(C)C(=S)SSC(=S)N(C)C [Thiram, bis(dimethylthiocarbamoyl) disulfide] | – | – | – | 13.8 | 26.73 | 2.0 |
